Test results reported in patent publication US11999716B2, “WDR5 inhibitors and modulators” (priority 2018, dated 2024).

system: MV4:11 human cancer cell lines; assay: Cellular viability / anti-proliferative activity, CellTiter-Glo, 5 day protocol; format: cell-based; details: Homo sapiens, MV4-11, 120 h, MV4:11 cells; 5 day incubation; CellTiter-Glo; mean of minimum two replicates; read-out: GI50 on cellular proliferation of MV4:11 human cancer cell lines
Procedure, shortened: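 Cells seeded at 200 per well (7200 cells/mL) with compound in 2-fold serial dilutions from 30 μM top (22 points), 0.3% DMSO final. Viability read by CellTiter-Glo luminescence after 5 days; GI50 from sigmoidal dose-response fit, mean of at least two replicates.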

Row | SMILES | GI50 [nM]
1 | COc1cc(CN2CCc3c(OCC4CC4)cc(Cn4ccnc4C4CC4)cc3C2=O)cc(OC)c1 [Example 19, 7-((2-Cyclopropyl-1H-imidazol-1-yl)methyl)-5-(cyclopropylmethoxy)-2-(3,5-dimethoxybenzyl)-3,4-dihydroisoquinolin-1(2H)-one] | > 938
2 | COc1cc(CN2CCc3c(cc(Cn4ccn(C)c4=N)cc3-c3c(C)nn(C)c3C)C2=O)cc(OC)c1 [Example 64, 2-(3,5-Dimethoxybenzyl)-7-((2-imino-3-methyl-2,3-dihydro-1H-imidazol-1-yl)methyl)-5-(1,3,5-trimethyl-1H-pyrazol-4-yl)-3,4-dihydroisoquinolin-1(2H)-one] | > 938
3 | CCn1cc(CN2CCc3c(cc(Cn4ccoc4=N)cc3-c3cn(CC)nc3C(F)(F)F)C2=O)nn1 [Example 96, 2-((1-Ethyl-1H-1,2,3-triazol-4-yl)methyl)-5-(1-ethyl-3-(trifluoromethyl)-1H-pyrazol-4-yl)-7-((2-iminooxazol-3(2H)-yl)methyl)-3,4-dihydroisoquinolin-1(2H)-one] | < 50
4 | COc1ccnc(CN2CCc3c(cc(Cn4ccn(C)c4=N)cc3-c3cn(C)nc3C)C2=O)c1 [Example 42, 5-(1,3-Dimethyl-1H-pyrazol-4-yl)-7-((2-imino-3-methyl-2,3-dihydro-1H-imidazol-1-yl)methyl)-2-((4-methoxypyridin-2-yl)methyl)-3,4-dihydroisoquinolin-1(2H)-one] | 291
5 | Cc1cc(CN2CCc3c(cc(Cn4ccnc4C)cc3-c3cccnc3C)C2=O)ccc1Cl [Example 7, 2-(4-Chloro-3-methylbenzyl)-7-((2-methyl-1H-imidazol-1-yl)methyl)-5-(2-methylpyridin-3-yl)-3,4-dihydroisoquinolin-1(2H)-one] | 572
6 | Cc1ccnc([C@H](C2CC2)N2CCc3c(cc(Cn4ccn(C)c4=N)cc3-c3ccc(F)cc3C)C2=O)c1 [Example 37, (S)-2-(Cyclopropyl(4-methylpyridin-2-yl)methyl)-5-(4-fluoro-2-methylphenyl)-7-((2-imino-3-methyl-2,3-dihydro-1H-imidazol-1-yl)methyl)-3,4-dihydroisoquinolin-1(2H)-one] | < 50
7 | CCn1cc(-c2cc(Cn3ccsc3=N)cc3c2CCN(Cc2cc(OC)ccn2)C3=O)cn1 [Example 102, 5-(1-ethyl-1H-pyrazol-4-yl)-7-((2-iminothiazol-3(2H)-yl)methyl)-2-((4-methoxypyridin-2-yl)methyl)-3,4-dihydroisoquinolin-1(2H)-one] | > 938
8 | CCn1cc(-c2cc(Cc3ncc[nH]3)cc3c2CCN([C@@H](C)c2cc(OC)ccn2)C3=O)c(C(F)(F)F)n1 [Example 230, (S)-7-((1H-Imidazol-2-yl)methyl)-5-(1-ethyl-3-(trifluoromethyl)-1H-pyrazol-4-yl)-2-(1-(4-methoxypyridin-2-yl)ethyl)-3,4-dihydroisoquinolin-1(2H)-one] | < 50
9 | Cc1cc([C@H](C)N2CCc3c(cc(Cn4ccnc4C)cc3-c3cn(C)nc3C(F)(F)F)C2=O)ccc1F [Example 24, (S)-2-(1-(4-Fluoro-3-methylphenyl)ethyl)-7-((2-methyl-1H-imidazol-1-yl)methyl)-5-(1-methyl-3-(trifluoromethyl)-1H-pyrazol-4-yl)-3,4-dihydroisoquinolin-1(2H)-one] | < 50
10 | Cc1nccn1Cc1cc2c(c(-c3cn(C)nc3C(F)(F)F)c1)CCN(Cc1cc(Br)cc3c1OCC3)C2=O [Example 216, 2-((5-Bromo-2,3-dihydrobenzofuran-7-yl)methyl)-7-((2-methyl-1H-imidazol-1-yl)methyl)-5-(1-methyl-3-(trifluoromethyl)-1H-pyrazol-4-yl)-3,4-dihydroisoquinolin-1(2H)-one] | 56
11 | CCn1cc(-c2cc(Cn3ccn(C)c3=N)cc3c2CCN([C@@H](C)c2cc(OC)ccn2)C3=O)c(C(F)(F)F)n1 [Example 66, (S)-5-(1-Ethyl-3-(trifluoromethyl)-1H-pyrazol-4-yl)-7-((2-imino-3-methyl-2,3-dihydro-1H-imidazol-1-yl)methyl)-2-(1-(4-methoxypyridin-2-yl)ethyl)-3,4-dihydroisoquinolin-1(2H)-one] | < 50
12 | CCn1cc(-c2cc(Cn3ccnc3C3CC3)cc3c2CCN([C@@H](C)c2cc(OC)ccn2)C3=O)c(C(F)(F)F)n1 [Example 159, (S)-7-((2-Cyclopropyl-1H-imidazol-1-yl)methyl)-5-(1-ethyl-3-(trifluoromethyl)-1H-pyrazol-4-yl)-2-(1-(4-methoxypyridin-2-yl)ethyl)-3,4-dihydroisoquinolin-1(2H)-one] | < 50
13 | Cc1nccn1Cc1cc2c(c(-c3cn(C)nc3C(F)(F)F)c1)CCN(Cc1cccc(-c3ccsc3)c1)C2=O [Example 231, 7-((2-Methyl-1H-imidazol-1-yl)methyl)-5-(1-methyl-3-(trifluoromethyl)-1H-pyrazol-4-yl)-2-(3-(thiophen-3-yl)benzyl)-3,4-dihydroisoquinolin-1(2H)-one] | 550
14 | Cc1nccn1Cc1cc2c(c(-c3cn(C)nc3C(F)(F)F)c1)CCN(Cc1ccccc1)C2=O [Example 233, 2-Benzyl-7-((2-methyl-1H-imidazol-1-yl)methyl)-5-(1-methyl-3-(trifluoromethyl)-1H-pyrazol-4-yl)-3,4-dihydroisoquinolin-1(2H)-one] | 748
15 | COc1cc(CN2CCc3c(cc(Cn4cnn(C)c4=N)cc3-c3ccc(C)nc3C)C2=O)cc(OC)c1 [Example 127, 2-(3,5-Dimethoxybenzyl)-5-(2,6-dimethylpyridin-3-yl)-7-((5-imino-1-methyl-1,5-dihydro-4H-1,2,4-triazol-4-yl)methyl)-3,4-dihydroisoquinolin-1(2H)-one] | 345
16 | COc1ccnc([C@H](C)N2CCc3c(cc(Cn4ccnc4C)cc3-c3cccnc3C(F)(F)F)C2=O)c1 [Example 192, (S)-2-(1-(4-Methoxypyridin-2-yl)ethyl)-7-((2-methyl-1H-imidazol-1-yl)methyl)-5-(2-(trifluoromethyl)pyridin-3-yl)-3,4-dihydroisoquinolin-1(2H)-one] | 77
17 | COc1cc(CN2CCc3cc(F)c(Cn4ccn(C)c4=N)cc3C2=O)cc(OC)c1 [Example 25, 2-(3,5-Dimethoxybenzyl)-6-fluoro-7-((2-imino-3-methyl-2,3-dihydro-1H-imidazol-1-yl)methyl)-3,4-dihydroisoquinolin-1(2H)-one] | > 938
18 | Cc1ccnc([C@H](C2CC2)N2CCc3c(cc(Cn4ccnc4)cc3-c3ccc(F)cc3C)C2=O)c1 [Example 184, (S)-7-((1H-Imidazol-1-yl)methyl)-2-(cyclopropyl(4-methylpyridin-2-yl)methyl)-5-(4-fluoro-2-methylphenyl)-3,4-dihydroisoquinolin-1(2H)-one] | 125
19 | COc1ccnc(CN2CCc3c(cc(Cn4ccnc4C4CC4)cc3-c3cn(C)nc3C)C2=O)c1 [Example 9, 7-((2-Cyclopropyl-1H-imidazol-1-yl)methyl)-5-(1,3-dimethyl-1H-pyrazol-4-yl)-2-((4-methoxypyridin-2-yl)methyl)-3,4-dihydroisoquinolin-1(2H)-one] | 553
20 | Cc1cc([C@H](C)N2CCc3c(cc(Cn4ccn(C)c4=N)cc3-c3ccc(F)cc3C)C2=O)ccc1F [Example 40, (S)-5-(4-Fluoro-2-methylphenyl)-2-(1-(4-fluoro-3-methylphenyl)ethyl)-7-((2-imino-3-methyl-2,3-dihydro-1H-imidazol-1-yl)methyl)-3,4-dihydroisoquinolin-1(2H)-one] | < 50
21 | CCc1ccc(OCC(=O)NCc2cccnc2)c(CN2CCc3c(cc(Cn4ccnc4C)cc3-c3cn(C)nc3C(F)(F)F)C2=O)c1 [Example 215, 2-(4-Ethyl-2-((7-((2-methyl-1H-imidazol-1-yl)methyl)-5-(1-methyl-3-(trifluoromethyl)-1H-pyrazol-4-yl)-1-oxo-3,4-dihydroisoquinolin-2(19)-yl)methyl)phenoxy)-N-(pyridin-3-ylmethyl)acetamide] | 168
22 | Cc1ccnc(CN2CCc3c(cc(Cn4ccn(C5CC5)c4=N)cc3-c3cn(C)nc3C(F)(F)F)C2=O)c1 [Example 51, 7-((3-Cyclopropyl-2-imino-2,3-dihydro-1H-imidazol-1-yl)methyl)-5-(1-methyl-3-(trifluoromethyl)-1H-pyrazol-4-yl)-2-((4-methylpyridin-2-yl)methyl)-3,4-dihydroisoquinolin-1(2H)-one] | < 50
23 | COc1cc(CN2CCc3c(cc(CN4CCCC4=N)cc3-c3ccc(F)cc3C)C2=O)cc(OC)c1 [Example 113, 2-(3,5-Dimethoxybenzyl)-5-(4-fluoro-2-methylphenyl)-7-((2-iminopyrrolidin-1-yl)methyl)-3,4-dihydroisoquinolin-1(2H)-one] | 462
24 | O=C1c2cc(Cn3ccnc3)ccc2CCN1Cc1cc(Cl)cc(Cl)c1 [Example 1, 7-((1H-Imidazol-1-yl)methyl)-2-(3,5-dichlorobenzyl)-3,4-dihydroisoquinolin-1(2H)-one] | 239
25 | Cc1nccn1Cc1cc2c(c(-c3cn(C)nc3C(F)(F)F)c1)CCN(CC1CCCOC1)C2=O (stereo not drawn) [Example 167, 7-((2-Methyl-1H-imidazol-1-yl)methyl)-5-(1-methyl-3-(trifluoromethyl)-1H-pyrazol-4-yl)-2-((tetrahydro-2H-pyran-3-yl)methyl)-3,4-dihydroisoquinolin-1(2H)-one] | 3020
26 | C=Cc1cccc(CN2CCc3c(cc(Cn4ccnc4C)cc3-c3cn(C)nc3C(F)(F)F)C2=O)c1 [Example 235, 7-((2-Methyl-1H-imidazol-1-yl)methyl)-5-(1-methyl-3-(trifluoromethyl)-1H-pyrazol-4-yl)-2-(3-vinylbenzyl)-3,4-dihydroisoquinolin-1(2H)-one] | 199
27 | COc1ccnc([C@H](C)N2CCc3c(cc(Cn4ccsc4=N)cc3-c3cn(C)nc3C(F)(F)F)C2=O)c1 [Example 105, (S)-7-((2-iminothiazol-3(2H)-yl)methyl)-2-(1-(4-methoxypyridin-2-yl)ethyl)-5-(1-methyl-3-(trifluoromethyl)-1H-pyrazol-4-yl)-3,4-dihydroisoquinolin-1(2H)-one] | < 50
